In one assay the target is T1, MCL-1 protein (Homo sapiens, UniProt Q07820).
T1 construct: Bim peptide bought from R&D, 3526/1 NA
In words: MCL-1 protein binding experiment (HTRF, MCL-1/Bim). The settings on record: for inhibition at up to 10 µM: HTRF MCL-1/Bim binding, initial concentration 10 μM, read-out: Maximum inhibition rate (%); for Ki: HTRF, 0.1 nM His-MCL-1, 2.5 nM bio-Bim, room temperature. The protocol: The following method was used to determine the binding ability of the compound of the present invention to MCL-1 protein. The experimental method is briefly described as follows.
MCL-1 inhibitors can bind to MCL-1 protein to prevent the binding of MCL-1 to Bim protein. The experiment evaluates the binding ability of MCL-1 inhibitor to MCL-1 protein by detecting the binding of MCL-1 to Bim protein through HTRF method, and the activity of the compound was evaluated according to the Ki value.
The mixture was incubated at room temperature for 2 hours, followed by the detection of fluorescence signals at 620 nm and 665 nm by PHERAstar. The data was processed by GraphPad software.
In general terms: Time-resolved FRET reads energy transfer from a long-lived donor to a nearby acceptor.

For another assay, the system named is MV-4-11 cells. Description: Cell proliferation experiment (intracellular ATP, CellTiter-Glo), MV-4-11. In kind it is cell-based. The settings on record: Homo sapiens, MV4-11, 72 h, read-out: MV-4-11 IC50. The protocol: (§1) The following method evaluates the inhibition effect of the compound of the present invention on the proliferation of AMO-1 and MV-4-11 cells according to IC50 value by detecting intracellular ATP content. The experimental method is briefly described as follows.
(§2) AMO-1 cells were cultured in RPMI1640 medium (containing 20% FBS), and MV-4-11 cells were cultured in IMDM medium (containing 10% FBS). The cells were passaged for 2 to 3 times a week, with a passage ratio of 1:4 or 1:6. During the passage, the cells were transferred to a centrifuge tube and centrifuged at 1200 rpm for 3 minutes. The supernatant was discarded, and fresh medium was added to resuspend the cells. […] 100 μL of complete medium was added to the periphery of the 96-well plate. The plate was incubated in an incubator for 24 hours (37° C., 5% CO2).
(§3) The test sample was diluted to 20 mM with DMSO, and then diluted to 9 concentrations by diluting in 4-fold gradient. Blank and control wells were set. 5 μL of the test compound solution formulated as gradient concentration was added to 95 μL of fresh medium. 10 µL of the above drug-containing medium solution was added to the plate. The plate was incubated in an incubator for 3 days (37° C., 5% CO2). In the 96-well cell culture plate, 50 μL of CellTiter-Glo reagent was added to each well, and the plate was left to stand in the dark at room temperature for 5 to 10 minutes. The chemiluminescence signal value was read in PHERAstar, and the data was processed by GraphPad software.
For orientation: In ATP-based viability assays light output follows the ATP content of the culture.

The test system of a further assay is AMO-1 cells. In words: Cell proliferation experiment (intracellular ATP, CellTiter-Glo), AMO-1. In kind it is cell-based. As to conditions: Homo sapiens, AMO1, 72 h, read-out: AMO-1 IC50. The protocol: as §1
1. AMO-1, human bone marrow plasmacytoma (Nanjing Cobioer Biosciences Co., Ltd., CBP60242)
as §2, §3

In a further assay the target is T2, CYP2C9 (Homo sapiens, UniProt P11712).
T2 construct: Human liver microsomes (Corning Gentest, Cat No. 452161, Lot No. 6123001, 33 Donors); tissue Corning Gentest 452161; host or cells: human liver microsomes, pool of 33 donors
In words: Inhibition of human liver microsomal P450 subenzyme CYP2C9. The settings on record: human liver microsomes, diclofenac metabolic site, 30 minutes incubation; read-out: 2C9 IC50. Type of assay: in vitro ADME. The protocol:
(§4) The inhibition effect of the compound of the present invention on the enzymatic activity of human liver microsomal P450 subenzymes CYP2C9 and 2C19 was determined by the following experimental method.
(§5) 6. CYP probe substrate for 2C9 (Diclofenac/4 μM, SIGMA, Cat No. D6899-10G) and CYP probe substrate for 2C19 ((S)-Mephenytoin/20 μM, J&K Scientific Ltd., CatNo. 303768); positive control inhibitor for 2C9 ([…], SIGMA, Cat No. 526-08-9) and positive control inhibitor for 2C19 (Ticlopidine, SIGMA, Cat No. T6654-1G).
(§6) 100 mM PBS buffer solution was formulated. 2.5 mg/mL microsome solution, 15 mM MgCl2 solution and 5 mM NADPH solution were formulated with the buffer solution. 30 mM stock solution was diluted with DMSO into a serial solution I with concentrations of 10 mM, 3 mM, 1 mM, 0.3 mM, 0.1 mM, 0.03 mM, […] and 0 mM. The above serial solution I was diluted for 200 times with the phosphate buffer solution (PBS) to obtain a serial test solution II (150, 50, 15, 5, 1.5, 0.15, 0.015, 0 μM). […]
(§7) The data were calculated by Graphpad Prism to obtain the IC50 values of the compound for the diclofenac metabolic site of CYP2C9 and (S)-mephenytoin metabolic site of 2C19. which are shown in Table 3.
For orientation: Liver microsomes are vesicles of endoplasmic reticulum, rich in cytochrome P450 enzymes.

A further assay addresses T3, 2C19 (Homo sapiens, UniProt P33261).
T3 construct: Human liver microsomes (Corning Gentest, Cat No. 452161, Lot No. 6123001, 33 Donors); tissue Corning Gentest 452161; host or cells: human liver microsomes, pool of 33 donors
Description: Inhibition of human liver microsomal P450 subenzyme CYP2C19. In kind it is in vitro ADME. As to conditions: human liver microsomes, (S)-mephenytoin metabolic site, 30 minutes incubation. As to the method: as §4, §5, §6, §7

Setting [1] is: MV-4-11 cells, incubated 3 days, CellTiter-Glo.
Setting [2] is: AMO-1 cells, incubated 3 days, CellTiter-Glo.

Molecules are shown by their SMILES. Like-named read-outs stand apart in the source and are kept apart here.

T1 sequence (Q07820 171-327): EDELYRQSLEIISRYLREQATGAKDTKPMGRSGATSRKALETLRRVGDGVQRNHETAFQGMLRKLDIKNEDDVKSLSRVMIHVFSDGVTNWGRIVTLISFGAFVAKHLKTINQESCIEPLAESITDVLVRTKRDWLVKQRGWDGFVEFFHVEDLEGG
T3 sequence (P33261 whole entry): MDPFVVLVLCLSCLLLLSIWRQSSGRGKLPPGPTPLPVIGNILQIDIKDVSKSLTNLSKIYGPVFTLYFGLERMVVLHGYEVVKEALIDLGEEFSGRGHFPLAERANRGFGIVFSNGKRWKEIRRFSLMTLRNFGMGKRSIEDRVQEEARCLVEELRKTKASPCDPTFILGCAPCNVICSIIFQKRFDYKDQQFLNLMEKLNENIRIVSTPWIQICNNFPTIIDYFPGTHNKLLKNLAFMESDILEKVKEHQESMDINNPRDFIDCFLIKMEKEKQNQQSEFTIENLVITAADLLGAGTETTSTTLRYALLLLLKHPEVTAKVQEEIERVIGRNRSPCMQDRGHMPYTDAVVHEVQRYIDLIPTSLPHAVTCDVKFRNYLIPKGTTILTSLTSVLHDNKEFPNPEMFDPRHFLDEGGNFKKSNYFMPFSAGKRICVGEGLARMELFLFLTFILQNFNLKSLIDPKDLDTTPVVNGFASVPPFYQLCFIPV
T2 sequence (P11712 whole entry): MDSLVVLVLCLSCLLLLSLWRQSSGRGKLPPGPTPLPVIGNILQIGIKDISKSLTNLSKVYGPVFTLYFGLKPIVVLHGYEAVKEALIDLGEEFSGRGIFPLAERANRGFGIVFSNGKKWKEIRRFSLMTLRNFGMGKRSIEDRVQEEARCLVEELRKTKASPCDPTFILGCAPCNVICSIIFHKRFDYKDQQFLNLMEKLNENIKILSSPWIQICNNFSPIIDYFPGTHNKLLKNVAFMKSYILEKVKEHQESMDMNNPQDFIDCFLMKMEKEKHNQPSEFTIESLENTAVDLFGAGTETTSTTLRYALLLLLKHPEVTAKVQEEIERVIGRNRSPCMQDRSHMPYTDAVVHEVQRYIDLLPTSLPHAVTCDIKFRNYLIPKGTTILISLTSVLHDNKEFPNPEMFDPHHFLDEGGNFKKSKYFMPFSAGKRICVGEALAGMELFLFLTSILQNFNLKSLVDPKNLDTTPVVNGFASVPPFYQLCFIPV

By inhibition is commonly meant the change of the read-out against control, counted positive when it falls. What is called Ki is the equilibrium dissociation constant of an inhibitor or competing ligand from its target. The term IC50 denotes the midpoint of a concentration-inhibition curve. On to `Cc1c(C(=O)O)n2c3ccc(Cl)c(c13)-c1c(nn(C)c1C)CSCc1cc(n(C)n1)CSc1cc(c3ccccc3c1)OCCC2` (single isomer, unassigned) [Example 2-1, (Ra)-17-Chloro-5,13,14,22-tetramethyl-28-oxa-2,9-dithia-5,6,12,13,24-pentaazaheptacyclo[27.7.1.1^4,7.0^11,15.0^16,21.0^20,24.0^30,35]octatriaconta-1(37),4(38),6,11,14,16,18,20,22,29,31,33,35-tridecaene-23-carboxylic acid], for which, on MCL-1 protein, the inhibition at up to 10 µM came to 100% and the Ki is 0.11 nM. In addition, the IC50 with MV-4-11 cells (setting [1]) is 42 nM. Besides, in the assay on AMO-1 cells (setting [2]), the IC50 was 76 nM.

`Cc1c(C(=O)O)n2c3ccc(Cl)c(c13)-c1c(nn(C)c1C)CSCc1cc(n(C)n1)CCc1cc(c3ccccc3c1)OCCC2` (single isomer, unassigned) [Example 4-1, (Ra)-17-Chloro-5,13,14,22-tetramethyl-28-oxa-9-thia-5,6,12,13,24-pentaazaheptacyclo[27.7.1.1^4,7.0^11,15.0^16,21.0^20,24.0^30,35]octatriaconta-1(37),4(38),6,11,14,16,18,20,22,29,31,33,35-tridecaene-23-carboxylic acid]: at MCL-1 protein, the inhibition at up to 10 µM worked out at 100% and affinity was put at a Ki of 0.15 nM. Moreover, in the assay with MV-4-11 cells, the IC50 is 39 nM. In addition, the IC50 in the assay on AMO-1 cells is 37 nM.

On to `Cc1c(C(=O)O)n2c3ccc(Cl)c(c13)-c1c(nn(C)c1C)CSCc1cc(n(C)n1)CSc1cc3c(c(c1)OCCC2)CCCC3` (single isomer, unassigned) [Example 7-1, (Ra)-17-Chloro-5,13,14,22-tetramethyl-28-oxa-2,9-dithia-5,6,12,13,24-pentaazaheptacyclo[27.7.1.1^4,7.0^11,15.0^16,21.0^20,24.0^30,35]octatriaconta-1(37),4(38),6,11,14,16,18,20,22,29,35-undecaene-23-carboxylic acid], for which, at MCL-1 protein, the inhibition at up to 10 µM turned out to be 99%. The molecule also showed an inhibition constant Ki on MCL-1 protein of 0.74 nM. The IC50 is 71 nM in the assay with MV-4-11 cells (setting [1]) and 70 nM with AMO-1 cells (setting [2]).

With `Cc1c(C(=O)O)n2c3ccc(Cl)c(c13)-c1c(nn(C)c1C)CSCc1cc(n(C)n1)CCc1cc3c(c(c1)OCCC2)CCCC3` (single isomer, unassigned) [Example 8-1, (Ra)-17-Chloro-5,13,14,22-tetramethyl-28-oxa-9-thia-5,6,12,13,24-pentaazaheptacyclo[27.7.1.1^4,7.0^11,15.0^16,21.0^20,24.0^30,35]octatriaconta-1(37),4(38),6,11,14,16,18,20,22,29,35-undecaene-23-carboxylic acid], the inhibition at up to 10 µM on MCL-1 protein amounted to 100%. The inhibition constant Ki on MCL-1 protein is 0.46 nM. In addition, the IC50 turned out to be 136 nM in the assay on MV-4-11 cells (setting [1]) and 100 nM in the assay on AMO-1 cells (setting [2]).

With `Cc1c(C(=O)O)n2c3ccc(Cl)c(c13)-c1c(nn(C)c1C)CSCc1cc(n(C)n1)CSc1cc(cc3c1CCC3)OCCC2` (single isomer, unassigned) [Example 12-1, (Ra)-17-Chloro-5,13,14,22-tetramethyl-28-oxa-2,9-dithia-5,6,12,13,24-pentaazaheptacyclo[27.6.1.1^4,7.0^11,15.0^16,21.0^20,24.0^30,35]heptatriaconta-1(36),4(37),6,11,14,16,18,20,22,29,31(35)-undecaene-23-carboxylic acid], the IC50 is greater than 30000 nM at CYP2C9, 36 nM in the assay with MV-4-11 cells (setting [1]), greater than 30000 nM on 2C19 and 34 nM with AMO-1 cells (setting [2]). Besides, the inhibition at up to 10 µM on MCL-1 protein was 100%. Also, affinity at MCL-1 protein was put at a Ki of 0.24 nM.

Take `Cc1c(C(=O)O)n2c3ccc(Cl)c(c13)-c1c(nn(C)c1C)CSCc1cc(n(C)n1)CSc1cc3c(c(c1)OCCC2)CCC3` (single isomer, unassigned) [Example 13-1, (Ra)-17-Chloro-5,13,14,22-tetramethyl-28-oxa-2,9-dithia-5,6,12,13,24-pentaazaheptacyclo[27.6.1.1^4,7.0^11,15.0^16,21.0^20,24.0^30,34]heptatriaconta-1(36),4(37),6,11,14,16,18,20,22,29,34-undecaene-23-carboxylic acid]: the IC50 is 16600 nM on CYP2C9, 26 nM with MV-4-11 cells (setting [1]), greater than 30000 nM against 2C19 and 26 nM in the assay on AMO-1 cells (setting [2]). In addition, on MCL-1 protein, the inhibition at up to 10 µM stood at 100%. On MCL-1 protein, this molecule came in with an inhibition constant (Ki) of 0.16 nM.

As to `Cc1c(C(=O)O)n2c3ccc(Cl)c(c13)-c1c(nn(C)c1C)CSCc1cc(n(C)n1)CSc1cc(cc3c1CCC3)OCCC2` [Example 12, 17-Chloro-5,13,14,22-tetramethyl-28-oxa-2,9-dithia-5,6,12,13,24-pentaazaheptacyclo[27.6.1.1^4,7.0^11,15.0^16,21.0^20,24.0^30,35]heptatriaconta-1(36),4(37),6,11,14,16,18,20,22,29,31(35)-undecaene-23-carboxylic acid], at MCL-1 protein, the inhibition at up to 10 µM came to 100% and the inhibition constant Ki amounted to 0.22 nM. Further, the IC50 with MV-4-11 cells (setting [1]) came to 63 nM. For the same molecule, the IC50 in the assay with AMO-1 cells (setting [2]) was 63 nM.

Values taken from patent publication US20220041623A1, “INDOLE MACROCYCLIC DERIVATIVE, PREPARATION METHOD THEREOF AND APPLICATION THEREOF IN MEDICINE” (JIANGSU HENGRUI MEDICINE CO., LTD., priority 2018, published 2022).
